Reference: publication PMC6611213, “Key Features Relevant to Select Antigens and TCR From the MHC-Mismatched Repertoire to Treat Cancer” (Frontiers in Immunology, 2019)

What was measured:
HLA-B7 monomers [1] = test: UV-mediated peptide exchange, B2M ELISA; assay type: binding, human; details: for Stability after UV-peptide exchange, V50: Pooled values of at least three independent experiments, 0–200 μM peptide, UV 366 nm, B2M ELISA, Boltzmann fit; for HLA-stabilization potential: UV-peptide exchange, titrated peptide
Description: Biotinylated HLA-B7 monomers loaded with the UV-cleavable epitope AARG(J)TLAM were created as previously described ([33]). Peptide-HLA stability was measured using the protocol on the basis of Rodenko et al. ([34]). In brief, HLA-B7 monomers loaded with the UV-sensitive peptide were exposed to UV light (366 nm) in the presence of graded amounts (0–200 μM) of MPO peptides. Afterward 1:10 dilutions of the UV-exchanged monomers were adhered via streptavidin to the bottom of a 96-well plate (F96 maxisorp nunc-immune plate, Thermo scientific) and a beta-2-microglobulin ELISA was performed. The OD measurements were performed on a Tecan Sunrise multi-well-reader using Magellan software (version 7.2).
(§1) An E/T ratio of 1:1 was used. IFN-γ secretion of the supernatants after co-cultivation was measured by IFN-γ ELISA. […] (B) Beta-2-microglobulin (B2M)-ELISA of UV-mediated peptide exchanged HLA-B7 monomers. V50 values of a Boltzmann fitting for each MPO-peptide was determined by the optical density of B2M after degraded amounts of MPO-peptides were used for HLA-stabilization. […] (C) Pooled results of (B) for MPO5 (n = 4), MPO2 (n = 4), and MPO2+L1 (n = 3). Significance is calculated by Mann-Whitney Test: *p = 0.0286. TEXT PRINTED IN THE PICTURE: (B) MPO5: V50 = -5,204 | (B) MPO2: V50 = -4,610 | (B) MPO2+L1: V50 = -4,143
To verify the stability results of all three MPO-peptides experimentally, we performed HLA-B7 UV-peptide exchange assays with titrated amounts of peptide added to a constant concentration of HLA-B7 monomers bound to a UV-sensitive peptide. […] Thus, our results oppose the results of the NetMHC stability prediction. As a second experiment, we performed thermal shift assays for the MPO peptides to characterize their potential to prevent denaturation of the HLA-complex with ascending temperature (Supplementary Figure 3A; Table 1).

HLA-B7 monomers [2] = test: Thermal shift assay (DSF) of p-MHC complexes; assay type: binding, human; details: for Thermal stability V50: 2 µM monomer, 150 mM NaCl, 10 mM HEPES pH 7.4, 3 mM EDTA, SYPRO orange, 21°C to 95°C, mean of quadruplicates (n=2); for thermal V50: Boltzmann fitting, rounded
Description: (§2) (A) Thermal shift assay of MPO-peptides in comparison to pp65 and MPO2+L1. Boltzmann fitting was used to determine V50 values (half-maximal denaturation) for each p-MHC complex after gradual heating from 21°C to 95°C. The mean of quadruplicates is shown (n=2). (B) Measurement of kinetic stability of indicated p-MHC complexes in comparison to pp65 and MPO2+L1 at constant temperature of 37°C. For the determination of half-maximal decay of p-MHC complexes, the slowest constant rates were used after fitting the fluorescence values with an exponential two-phase decay equation. The mean of quadruplicates is shown (n=2). (A,B) The fluorescence was measured by monitoring the intensity of SYPRO orange protein dye binding to hydrophobic core regions of unfolded p-MHC-complexes. (C) Occurrence of the MPO2 and MPO5 peptides on the surface of indicated AML cell lines with endogenous HLA-B7 expression using the heavy labelled Leu7 counterpart for detection. Logarithmic intensities of MPO peptide surface presentation for MPO peptides are shown in duplicates. MPO5 peptides are depicted in blue, MPO2 peptides are depicted in green (n=2).
(§3) For differential scanning fluorimetry (DSF), i.e. thermal shift assay and kinetic stability measurement, MPO2-, MPO2+L1-, MPO5- or pp65(417-426) peptide exchanged HLA-B7 monomers were used in a concentration of 2µM and analyzed on a StepOnePlus RT-PCR instrument (Applied Biosystems, Foster City, CA, USA), respectively. Samples were measured in a final volume of 20µl in MicroAmp^R Fast Optical 96-well reaction plates (Applied Biosystems) containing 150mM NaCl, 10mM HEPES (pH 7.4), 3mM EDTA and 10x SYPRO orange (Thermo Fisher Scientific) as described previously (Hellman et al., 2016). Analysis was done following the recommendations described elsewhere (Niesen et al., 2007) using the Microsoft Excel-based tool “DSF Analysis v3.0.2” available under the following link (ftp://ftp.sgc.ox.ac.uk/pub/biophysics). For accurate ﬁtting and calculation of V50-values, the Boltzmann equation was performed using GraphPad Prism (version 7.04, San Diego, USA). The kinetic stability was analyzed at constant 37°C and fluorescence was measured every 5 minutes. The fluorescent data were fit to a two-phase decay function and slowest rates for half-lives were calculated using GraphPad Prism (version 7.04, San Diego, USA).

HLA-B7 monomers [3] = test: Kinetic stability of p-MHC complexes at 37°C (DSF); assay type: binding, human; details: DSF at constant 37°C; for Half-life 37°C: pH 7.4, SYPRO orange, two-phase decay, slowest rate, mean of quadruplicates (n=2)
Description: as §2, §3

HLA-B7+ LCL1 cell line = test: IFN-γ release by TCRF5.4-transduced PBMC to peptide-pulsed LCL1; assay type: cell-based, human; details: peptide-pulsed LCL1, E/T 1:1, ELISA, triplicates (n = 2)
Description: as §1

[4] = system: HL60, ML2, NB4 and SiG-M5 AML cell lines; test: Cytokine secretion by TCR-transduced CD8+ T cells to AML cell lines; assay type: cell-based, human; details: AML cell lines pulsed with MPO2 or MPO5
Description: The cytotoxic reactivity of T cells was tested by flow cytometry making use of changes in signal of the HLA-B7eGFP-transgenic target cells during co-cultivation for different time periods and effector to target ratios. For relative quantification of cytotoxicity, AccuCheck counting beads were used according to the manufacturer's protocol (Thermo Fisher Scientific) and the results were normalized to either non-TCR-transduced T cells or irrelevant T-cell clones. The supernatants of the co-cultivation were used to measure IFN-γ by ELISA (BD) or GM-CSF, IFN-γ, and lL-2 multiplexed by flow cytometry (Miltenyi Biotec) according to the manufacturer's instructions. […] If not stated otherwise, the effector to target ratio was set to 1:1 for the co-incubation assays using 20,000 cells in each fraction.
Half-maximal IFN-γ release was calculated using logarithmic dose-response fitting algorithm with variable slope (EC50) of GraphPad Prism. Mean ± SD of triplicates of one representative experiment are shown (n = 6). […] 10.000 effector cells were used in a ratio of 1:1. Standard deviations of the mean of triplicates are shown (n = 4). (Gi−iv) Cytokine secretion (GM-CSF, IFN-γ, and IL-2) measured by flow cytometry based multiplex analysis in response to selected AML cell lines is shown in triplicates either unpulsed or additionally pulsed with MPO2 or MPO5.

AML cell lines = test: Targeted MS of surface-presented peptides; parameters: species or system human; details: targeted MS with heavy labelled peptides; MPO2 compared to MPO5 (n=2)
Description: as §2, with “MPO5 peptides are depicted in blue, MPO2 peptides are depicted in green (n=2).” left out
The MPO2 and MPO5 ligands were identified using an immunopeptidomic approach as previously described (Klar et al., 2014). For the targeted identification and relative quantification of both peptides, HLA-I peptides were purified from 5x10^8 cells of each cell line as previously described (Bassani-Sternberg et al., 2016). […]

| Sequence | Stability after UV-peptide exchange, V50 (HLA-B7 monomers [1]) [log10 M] | HLA-stabilization potential (HLA-B7 monomers [1]) | Thermal stability V50 (HLA-B7 monomers [2]) [°C] | thermal V50 (HLA-B7 monomers [2]) [°C] | Half-life 37°C (HLA-B7 monomers [3]) [h] | IFN-γ secretion by TCRF5.4-transduced T cells (HLA-B7+ LCL1 cell line) | Half-life (decay of HLA-complexes) 37°C (HLA-B7 monomers [3]) [h] | effect of additional peptide pulsing on cytokine secretion [4] | surface presentation on AML cell lines (AML cell lines) |
| --- | --- | --- | --- | --- | --- | --- | --- | --- | --- |
| LTPAQLNVL [MPO2+L1] | −3.728 | lowest potential for HLA-stabilization | 44.0 | 44 | 2.9 | detected IFN-γ secretion |  |  |  |
| NPRWDGERL [MPO5] | −5.535 | almost one log increased potential to rescue the HLA-B7 molecule | 46.4 | 46 | 4.1 |  | 4.1 | did not have a major impact on cytokine secretion |  |
| TPAQLNVL [MPO2] | −4.671 |  | 46.3 | 46 | 3.5 |  | 3.5 | these differences could be compensated by additional MPO2 peptide pulsing | markedly lower presented on the surface of all AML cells lines compared to MPO5 |
| TPRVTGGGAM [pp65, pp65(417-426) control peptide […], reference compound] |  |  | 50.0 | 50 | 5.6 |  |  |  |  |
